Converted amounts (≈) assume the structure as drawn. Read-outs that look alike come from different tables or passages of the source.
Legend:
[1] = Apparent association constants by 1H NMR shift analysis (dimeric model); format: physicochemical; details: for Ka (CHCl3), apparent association constant: CHCl3, dimeric model; for Ka (MeOH-H2O), apparent association constant: MeOH-H2O (legend: H2O), dimeric model
From the text: As is known, high concentration as a driving force to promote the molecular aggregation in solution is ubiquitous and well recognized[37],[38]. To compare the high concentration induced aggregation phenomenon with our case, we measured their apparent association constants (Ka) by ^1H NMR shift analysis after simplifying the aggregates to a dimeric model[39] (Supplementary Figs. 17–28). As listed in Fig. 3b, C10-C12 in chloroform display relatively weak association ability induced by high concentration factor. […] Meanwhile, the ^13C NMR spectra gave more informative details about C10-C12 in different existing states (Fig. 3c, Supplementary Figs. 13 and 14). […] In comparison, these signals became broadened and moved to upfield with a maximal 3.19 ppm shift in D2O conditions, which was almost in consistent with the solid-state ^13C magic-angle spinning (MAS) NMR spectrum despite its much broader signature. Moreover, the luminescent emissions of C10-C12 in various solvent ratios and solid-state were also screened (Fig. 3d, Supplementary Figs. 33 and 34). […] Unexpectedly, the maximal emissions in water are close to the solid state of C10-C12 (e.g., 472 nm in water versus 486 nm in solid for C10), indicative of a homologous excited-state energy transfer pathway.

Water-contact angle test = format: physicochemical
From the text: (§1) With the 12 combinatorial molecules in hand, we initially examined their hydrophilicity and aqueous solubility. The water-contact angle test gave a clear hydrophilic assessment for these molecules (Table 1 and Supplementary Table 1). The conventional shake-flask method was employed to obtain the thermodynamic aqueous solubility data[29]. […]. In pursuit of both improving the hydrophilicity and aqueous solubility, we planned to introduce dual N/O heteroatoms to C1 skeleton as listed in group 2. […]. The turning point comes to C9 that doping two N atoms on the phenanthrene subcomponent besides the oxazole part. A water contact angle of 0° indicates the high hydrophilicity of C9. […].
Supplementary Table 1. Collected water contact angles for C2 – C12 […]

[2] = Shake-flask thermodynamic aqueous solubility (1H NMR quantification); format: physicochemical; details: for solubility at 24 h: water, thermodynamic from solid, D2O, room temperature
From the text: as §1
1.3 Determination of solubility-related parameters
(1) Measurement of aqueous solubility
We applied the classic shake-flask method to determine the solubility data of C2–C12 in water. Typically, an excess amount of C2 was added to 1.0 mL of D2O, and the mixture was stirred at room temperature for 24 h. After that, the phase separation of saturated solution was finished through centrifugation. 1H NMR technology was applied to quantitatively analysis the concentration of solute using tetrahydrofuran as internal standard. Actually, we didn’t synthesize C1 to obtain its solubility data from experimental method because it’s obvious that this compound would be insoluble in water from reasonable judgement. Alternatively, due to its high hydrophobicity and measured water solubility data from C2–C8 counterpart, we can estimate this value must be at least lower than 0.1 mg / mL as well. […]

[3] = Hansen solubility parameters (HSP) from rated solvent library, optimized in HSPiP; Ra and RED versus water; format: physicochemical; details: for Water2 Ra: distance to water HSP of dense condition (18.1, 17.1, 16.9); for Water1 Ra: distance to water HSP of dilute condition (15.1, 20.4, 16.5); for δD (dispersion solubility parameter) / δH (hydrogen bonding solubility parameter) / δP (polar solubility parameter) / R0 (intrinsic distance parameter): experimentally rated solvent library, HSPiP; for R0 (intrinsic distance parameter): unit assumed; for Water1 RED (Ra/R0): water HSP of dilute condition (15.1, 20.4, 16.5); for Water2 RED (Ra/R0): water HSP of dense condition (18.1, 17.1, 16.9)
From the text: To figure out why the doped N/O heteroatoms on the aromatic skeletons can both influence their hydrophilicity and aqueous solubility, we employed the Hansen solubility parameters (HSP) to interpret this phenomenon. This method developed by Charles Hansen et al.[30] has found broad use both in academia and industry for predicting the compatibility or affinity between two substances[31]–[34]. The key elements of HSP approach are three partial solubility parameters consisting of δD, δP, and δH, in which δD represents the dispersion solubility parameter, δP represents the polar solubility parameter, and δH represents the hydrogen bonding solubility parameter, respectively.
The three partial parameters define a three-dimensional coordinate for substances in a virtual solubility space (Hanse space). In principle, the closer the two coordinates of HSP are, the more likely the substances will dissolve in each other, which is consistent with the notion of “like dissolves like” rule. To better describe the degree of closeness, another solubility parameter “distance” (Ra) is introduced as follows:1 Ra2=4(δD2−δD1)^2+(δP2−δP1)^2+(δH2−δH1)^2 […]
Meanwhile, each substance has an intrinsic distance parameter R0, together with HSP as a center point that would define a solubility sphere in Hansen space. If the HSP coordinate of one substance is located inside the sphere of another substance, it indicates a high affinity between them. For solute and solvent cases, a dissolution process may happen. Otherwise, a low affinity is inferred if one substance is excluded from the sphere of another.
The total HSP data set of C1-C12 was experimentally tested and optimized from a combination of solvents library and listed in Table 1 (Supplementary Methods 1.3, Supplementary Fig. 1). […] For the unique H2O, there are three sets of HSP for different conditions. The first is the HSP of single-molecule (pure) water (15.5, 16.0, 42.3), in which the δH is more salient than δD and δP, it well explains the strong hydrogen bonding interactions between water molecules. However, its use in the prediction of solubility in water is not deemed appropriate in most cases. The second and third sets of HSP for water are those derived from solubility data and should be chosen case by case. The second set of HSP (15.1, 20.4, 16.5) was derived from experimental data set exceeding 1% soluble compounds in water, which may be appropriate for the diluted solute case (denoted as Water1). The third set of HSP (18.1, 17.1, 16.9) was derived from experimental data set of complete miscible compounds with water, which may be appropriate for the dense solute case (denoted as Water2).
1.3 Determination of solubility-related parameters […]
(2) Determination of Hansen solubility parameters (HSP)3
A collection of solvents was used to estimate the HSPs values of C2–C12, which includes dichloromethane, chloroform, toluene, diethyl ether, hexane, dioxane, pyridine, tetrahydrofuran, dimethyl sulfoxide, N, N-dimethyl formamide, acetone, acetonitrile, methanol and ethanol. If the specific solvent (0.5 mL) can dissolve at least 1.0 mg of certain solute would be rated as good solvent, otherwise as bad solvent. For C1, it’s expected that this molecule can only dissolve in nonpolar solvents (recrystallized from CCl4 according to literature report). We […]
methanol, ethanol and water would be bad solvents. These rated solvent s datasets for C1–C12 were imported to HSPiP software that developed by Dr. Hansen, Abbott and Hiroshi to optimize and obtain three partial HSPs values.

[4] = Kinetic radii from DOSY NMR (Stokes-Einstein equation); format: physicochemical
[5] = AFM measurement of nanoparticles in wet conditions; format: physicochemical; details: aqueous solution 1.5 mM on mica
Experimental: To further confirm the aggregation-induced nanoparticles formed in water, we carried out atomic force microscope (AFM) measurement of C10-C12 in wet conditions[35] (Fig. 2c and Supplementary Figs. 29–31). Typically, a drop of aqueous solution of C11 (1.5 mM) was cast on a freshly cleaved mica surface and subjected to test. […] 2D and 3D height profiles gave a particle size around 8 nm.

[6] = parameters: method as in hazardous substances data bank; details: 25 °C; ref hazardous substances data bank; cited from earlier work

Ka (CHCl3), apparent association constant [1] | Ka (MeOH-H2O), apparent association constant [1] | Water contact angle (Water-contact angle test; C2-C12) [°] | solubility at 24 h [2] [µg/mL] | Water2 Ra [3] [MPa^0.5] | Water1 Ra [3] [MPa^0.5] | δD (dispersion solubility parameter) [3] | δH (hydrogen bonding solubility parameter) [3] | δP (polar solubility parameter) [3] | R0 (intrinsic distance parameter) [3] [MPa^0.5] | Water1 RED (Ra/R0) [3] | kinetic radius, DOSY ([4]; D2O) [nm] | kinetic radius, DOSY ([4]; MeOD-d4) [nm] | average diameter of nanoparticles (AFM statistical analysis) [5] [nm] | Structure (SMILES) | Water2 RED (Ra/R0) [3] | Aqueous solubility [2] | Water contact angle (Water-contact angle test; C1 not synthesized, deduced and estimated by comparison with C2) [°] | Aqueous solubility [6]
13(1) M^-1 | 918(77) M^-1 | 0 | 150000 (≈ 503 mM) | 10.9 | 16.4 | 19.4 (MPa)^0.5 | 17.2 (MPa)^0.5 | 6.5 (MPa)^0.5 | 12.3 | 1.3 |  |  |  | c1ccc(-c2nc3c4cccnc4c4ncccc4c3o2)nc1 [C12] |  |  |  | 
6(1) M^-1 | 850(50) M^-1 | 0 | 13000 (≈ 43.6 mM) | 10.2 | 14.9 | 18.3 (MPa)^0.5 | 15.9 (MPa)^0.5 | 7.0 (MPa)^0.5 | 11 | 1.4 | 3.98 | 0.65 | 8.32 | c1cncc(-c2nc3c4cccnc4c4ncccc4c3o2)c1 [C11] |  |  |  | 
8(2) M^-1 | 772(47) M^-1 | 0 | 40000 (≈ 134 mM) | 10.8 | 15 | 17.7 (MPa)^0.5 | 15.8 (MPa)^0.5 | 6.3 (MPa)^0.5 | 10.7 | 1.4 |  |  |  | c1cnc2c(c1)c1nc(-c3ccncc3)oc1c1cccnc12 [C10] |  |  |  | 
 |  | 0 | 900 (≈ 3.03 mM) | 5.1 | 10.8 | 18.6 (MPa)^0.5 | 15.5 (MPa)^0.5 | 12.3 (MPa)^0.5 | 10 | 1.1 |  |  |  | c1ccc(-c2nc3c4cccnc4c4ncccc4c3o2)cc1 [C9] |  | slightly soluble |  | 

The next lines start with the compound.

Structure (SMILES) | Ka (CHCl3), apparent association constant [1] | Ka (MeOH-H2O), apparent association constant [1] | Water contact angle (Water-contact angle test; C2-C12) [°] | solubility at 24 h [2] [µg/mL] | Water2 Ra [3] [MPa^0.5] | Water1 Ra [3] [MPa^0.5] | δD (dispersion solubility parameter) [3] | δH (hydrogen bonding solubility parameter) [3] | δP (polar solubility parameter) [3] | R0 (intrinsic distance parameter) [3] [MPa^0.5] | Water1 RED (Ra/R0) [3] | kinetic radius, DOSY ([4]; D2O) [nm] | kinetic radius, DOSY ([4]; MeOD-d4) [nm] | average diameter of nanoparticles (AFM statistical analysis) [5] [nm] | Water2 RED (Ra/R0) [3] | Aqueous solubility [2] | Water contact angle (Water-contact angle test; C1 not synthesized, deduced and estimated by comparison with C2) [°] | Aqueous solubility [6]
c1ccc(-c2nc3c4cccnc4c4ncccc4c3[nH]2)cc1 [C3] |  |  | 0 | < 100 | 10.5 | 14.1 | 17.9 (MPa)^0.5 | 10.1 (MPa)^0.5 | 9.1 (MPa)^0.5 | 5.4 |  |  |  |  | 1.9 |  |  | 
c1ccc(-c2nc3c4ccccc4c4ccccc4c3o2)nc1 [C8] |  |  | 128.6 | < 100 | 13.8 | 18.1 | 19.4 (MPa)^0.5 | 7.8 (MPa)^0.5 | 7.0 (MPa)^0.5 | 8.8 | 2.1 |  |  |  | 1.6 | barely soluble in water |  | 
c1ccc(-c2nc3c4ccccc4c4ccccc4c3[nH]2)cc1 [C2] |  |  | 140.6 | < 100 | 9.9 | 13.3 | 18.5 (MPa)^0.5 | 8.1 (MPa)^0.5 | 12.6 (MPa)^0.5 | 4.5 |  |  |  |  |  |  |  | 
c1ccc(-c2nc3c4cccnc4c4ncccc4c3[nH]2)nc1 [C6] |  |  | 0 | < 100 | 5.9 | 7.9 | 16.1 (MPa)^0.5 | 16.8 (MPa)^0.5 | 12.8 (MPa)^0.5 | 7.9 |  |  |  |  |  |  |  | 
c1ccc(-c2nc3c4ccccc4c4ccccc4c3o2)cc1 [C7] |  |  | 135.2 | < 100 | 13.9 | 18.2 | 19.5 (MPa)^0.5 | 7.5 (MPa)^0.5 | 7.2 (MPa)^0.5 | 6.6 | 2.8 |  |  |  |  | barely soluble in water |  | 
C1=C(c2ccccc2)Cc2c1c1ccccc1c1ccccc21 [C1, 2-phenyl-1H-cyclophen[l]phenanthrene, reference compound] |  |  |  |  | 20.8 | 23.8 |  |  |  |  |  |  |  |  |  |  | >140 | 
c1cnccn1 [pyrazine] |  |  |  |  |  |  |  |  |  |  |  |  |  |  |  |  |  | freely soluble in water
c1cncc(-c2nc3c4cccnc4c4ncccc4c3[nH]2)c1 [C5] |  |  | 0 | < 100 | 3.7 | 5.3 | 16.4 (MPa)^0.5 | 16.5 (MPa)^0.5 | 15.8 (MPa)^0.5 | 7 |  |  |  |  |  |  |  | 
c1cnc2c(c1)c1nc(-c3ccncc3)[nH]c1c1cccnc12 [C4] |  |  | 0 | < 100 | 3.8 | 5.5 | 16.4 (MPa)^0.5 | 16.1 (MPa)^0.5 | 15.6 (MPa)^0.5 | 7.5 |  |  |  |  |  |  |  | 

Source: PMC9814590, “Precise heteroatom doping determines aqueous solubility and self-assembly behaviors for polycyclic aromatic skeletons” (Communications Chemistry, 2022)
